From article PMC3745430, “Novel Multiplexed Assay for Identifying SH2 Domain Antagonists of STAT Family Proteins” (PLoS ONE, 2013)

What was measured:
STAT3(136–705) [1] = molecular target: T1, STAT3(136–705) (Homo sapiens, UniProt P40763); assay: Multiplexed Alpha assay, STAT3-SH2 binding (AlphaLISA); settings: multiplexed binding assay; mean and SEM, three independent experiments; read-out: IC50 STAT3-SH2 binding (STAT3)
T1 construct: amino acids 136 to 705 of human STAT3 and 136 to 703 of human STAT5b; 6×His-tag (N); made in house; host or cells: E. coli BL-21 Star (DE3) pLysS co-transformed with pBirAcm
Protocol: (§1) Both AlphaLISA and AlphaScreen are bead-based nonradioactive binding assay systems for detecting biomolecular interactions in a microplate format. The binding of the biological partners brings the donor and acceptor beads into close proximity, and AlphaLISA produces a specific signal around 615 nm and AlphaScreen emits a broad signal between 520 and 620 nm. The assays were performed in a final reaction volume of 25 µL of the assay buffer, which contained 10 mM HEPES-NaOH (pH 7.4), 50 mM NaCl, 1 mM EDTA (pH 8.0), 0.1% (w/v) NP-40, and 10 ng/µL (w/v) BSA in a 96-well microplate at 25°C. The labeled phosphotyrosyl (pTyr, pY) peptide probes were DIG-GpYLPQTV and FITC-GpYLVLDKW for STAT3 and STAT5b, respectively. In the single assay for STAT3 binding, 100 nM STAT3(136–705) protein was incubated with a test compound dissolved in DMSO for 30 min, and 1.0 nM DIG-GpYLPQTV was added and the mixture was incubated for 90 min. Streptavidin-coated donor beads (0.25 µg/well) and anti-DIG AlphaLISA acceptor beads (0.25 µg/well) were added and incubated for 90 min before the signals were measured with EnVison Xcite (PerkinElmer Life Sciences). In the single assay for STAT5b binding, 20 nM STAT5b(136–703) was incubated with a test compound for 30 min, and 1.0 nM FITC-GpYLVLDKW was added and incubated for 90 min. Streptavidin-coated donor beads (0.25 µg/well) and anti-FITC AlphaScreen acceptor beads (0.25 µg/well) were added and incubated for 90 min before the signals were measured with EnVison Xcite. In the multiplexed assay, 100 nM STAT3(136–705) and 20 nM STAT5b(136–703) were incubated with a test compound for 30 min, and 1.0 nM DIG-GpYLPQTV and 1.0 nM FITC-GpYLVLDKW were added and incubated for 90 min. Streptavidin-coated donor beads (0.50 µg/well), anti-DIG AlphaLISA (0.25 µg/well), and anti-FITC AlphaScreen acceptor beads (0.25 µg/well) were added and incubated for 90 min before the signals were measured with EnVison Xcite. AlphaLISA and AlphaScreen signals for measuring STAT3- and STAT5b-SH2 binding, respectively, can be separately measured by using a dysprosium 572 nm and a europium 615 nm narrow bandwidth filter. In inhibitory assays, these signals for the bound state and the free state were represented as 0% and 100% inhibition, respectively. The bound state was measured by incubating the labeled peptide and the protein without test compounds. The free state was measured by incubating the same mixture with an additional 10 µM non-labeled peptide contained phosphorylated tyrosine, which competitively binds to its corresponding protein. The IC50 value was calculated by Graph pad prism 4.0. The mean and the standard error (SEM) of IC50 values were determined from three independent experiments. The Z’ value was calculated using the equation Z’ = 1–(3×SD_bound +3×SD_free)/(Signal_bound – Signal_free). STAT1 and Grb2 binding assays were performed as described in previous report. In the assays for selectivity of Compound 1, 100 pM biotinylated DIG or 100 pM biotinylated FITC was incubated with 10 µM or 30 µM Compound 1 for 30 min. Streptavidin-coated donor beads (0.25 µg/well) and anti-DIG AlphaLISA acceptor beads (0.25 µg/well) or anti-FITC AlphaScreen acceptor beads (0.25 µg/well) were added and incubated for 90 min before the signals were measured with EnVison Xcite.

Grb2-SH2 = molecular target: T2, Grb2-SH2 (Homo sapiens, UniProt P62993); assay: Grb2-SH2 binding AlphaScreen assay; settings: AlphaScreen assay (Figure S8A)
T2 construct: made in house
Protocol: (§2) Both AlphaLISA and AlphaScreen are bead-based nonradioactive binding assay systems for detecting biomolecular interactions in a microplate format. The binding of the biological partners brings the donor and acceptor beads into close proximity, and AlphaLISA produces a specific signal around 615 nm and AlphaScreen emits a broad signal between 520 and 620 nm. The assays were performed in a final reaction volume of 25 µL of the assay buffer, which contained 10 mM HEPES-NaOH (pH 7.4), 50 mM NaCl, 1 mM EDTA (pH 8.0), 0.1% (w/v) NP-40, and 10 ng/µL (w/v) BSA in a 96-well microplate at 25°C. […] Streptavidin-coated donor beads (0.25 µg/well) and anti-DIG AlphaLISA acceptor beads (0.25 µg/well) were added and incubated for 90 min before the signals were measured with EnVison Xcite (PerkinElmer Life Sciences). […] Streptavidin-coated donor beads (0.25 µg/well) and anti-FITC AlphaScreen acceptor beads (0.25 µg/well) were added and incubated for 90 min before the signals were measured with EnVison Xcite. […] Streptavidin-coated donor beads (0.50 µg/well), anti-DIG AlphaLISA (0.25 µg/well), and anti-FITC AlphaScreen acceptor beads (0.25 µg/well) were added and incubated for 90 min before the signals were measured with EnVison Xcite. […] The bound state was measured by incubating the labeled peptide and the protein without test compounds. […] The IC50 value was calculated by Graph pad prism 4.0. […]

STAT1-SH2 = molecular target: T3, STAT1-SH2 (Homo sapiens, UniProt P42224); assay: STAT1-SH2 binding AlphaScreen assay; settings: AlphaScreen assay (Figure S8A)
T3 construct: made in house
T3 sequence (P42224 1-750): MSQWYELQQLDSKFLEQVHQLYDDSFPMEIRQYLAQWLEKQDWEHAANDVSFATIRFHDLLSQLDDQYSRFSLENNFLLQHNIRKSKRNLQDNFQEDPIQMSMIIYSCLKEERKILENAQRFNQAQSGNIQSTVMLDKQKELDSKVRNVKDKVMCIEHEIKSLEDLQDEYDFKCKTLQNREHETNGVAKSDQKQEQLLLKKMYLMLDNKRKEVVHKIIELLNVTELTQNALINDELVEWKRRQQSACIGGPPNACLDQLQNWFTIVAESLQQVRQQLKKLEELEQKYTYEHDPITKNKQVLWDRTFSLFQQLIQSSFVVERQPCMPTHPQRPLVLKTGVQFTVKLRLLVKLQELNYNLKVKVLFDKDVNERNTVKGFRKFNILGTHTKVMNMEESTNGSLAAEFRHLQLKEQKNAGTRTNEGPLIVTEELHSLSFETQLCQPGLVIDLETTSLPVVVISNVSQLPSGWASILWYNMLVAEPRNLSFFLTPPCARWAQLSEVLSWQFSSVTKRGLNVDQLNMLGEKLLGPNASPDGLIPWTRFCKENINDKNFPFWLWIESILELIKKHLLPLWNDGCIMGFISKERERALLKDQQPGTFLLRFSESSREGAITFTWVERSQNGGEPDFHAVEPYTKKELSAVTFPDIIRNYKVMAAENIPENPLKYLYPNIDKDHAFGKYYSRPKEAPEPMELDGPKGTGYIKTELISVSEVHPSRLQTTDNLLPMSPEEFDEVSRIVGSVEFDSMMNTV
Protocol: as §2

[2] = tested on: STAT3 nuclear translocation in HeLa cells; assay: STAT3 nuclear translocation assay in oncostatin M-stimulated HeLa cells; format: cell-based; settings: for Fluorescent intensity of STAT3 in the nuclei, of the vehicle treatment: 1 h pretreatment, oncostatin M 30 ng/mL 10 min, HeLa
Protocol: The Cellomics STAT3 Activation Kit (Thermo Scientific) was used for the nuclear translocation assay. HeLa cells were incubated in a 96-well microplate for 24 h. Cells were pretreated with the test compounds for 1 hour, and 30 ng/mL (w/v) of oncostatin M was applied and the mixture was incubated for 10 min. The subsequent procedures were performed according to the manufacturer’s instructions. The cells were scanned with an ArrayScan VTI reader (Thermo Scientific), and analyzed with the Cytoplasm to Nucleus Translocation Application. The mean fluorescent values in the nuclei were calculated. The signals for vehicle treatment and no treatment (without oncostatin M) were represented as 100% and 0%, respectively, and the relative signal intensity was also calculated.

STAT3(136–705) [3] = molecular target: T1, STAT3(136–705); assay: Single STAT3-SH2 binding assay (AlphaLISA); settings: non-multiplexed single assay
Protocol: as §1

T1 sequence (P40763 136-705): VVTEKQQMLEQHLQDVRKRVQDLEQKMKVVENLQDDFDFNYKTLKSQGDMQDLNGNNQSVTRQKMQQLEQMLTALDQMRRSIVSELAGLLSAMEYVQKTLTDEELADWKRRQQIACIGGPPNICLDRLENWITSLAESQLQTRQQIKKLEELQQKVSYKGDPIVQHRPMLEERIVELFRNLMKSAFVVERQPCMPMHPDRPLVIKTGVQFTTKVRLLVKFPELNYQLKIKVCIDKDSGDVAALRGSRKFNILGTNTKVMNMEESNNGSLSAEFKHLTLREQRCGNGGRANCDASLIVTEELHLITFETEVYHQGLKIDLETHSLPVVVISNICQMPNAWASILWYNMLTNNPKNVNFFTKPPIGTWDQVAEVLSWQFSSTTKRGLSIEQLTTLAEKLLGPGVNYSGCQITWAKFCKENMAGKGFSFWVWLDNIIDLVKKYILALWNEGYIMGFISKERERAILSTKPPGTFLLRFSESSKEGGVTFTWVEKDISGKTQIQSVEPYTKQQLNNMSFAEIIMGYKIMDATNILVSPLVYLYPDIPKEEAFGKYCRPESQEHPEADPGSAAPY

IC50 (STAT3(136–705) [1]): 5 ± 0.073 µM
Inhibition of Grb2-SH2 binding (Grb2-SH2): inhibited neither
Inhibition of STAT1-SH2 binding (STAT1-SH2): inhibited neither
IC50 (STAT3(136–705) [3]): 3.8 µM
SMILES: O=C1C=CC(=NC2=C(Cl)C(=O)c3ccccc3C2=O)C=C1 [Compound 1]
Fluorescent intensity of STAT3 in the nuclei, of the vehicle treatment ([2]; 60 µM): 51%
Fluorescent intensity of STAT3 in the nuclei, of the vehicle treatment ([2]; 100 µM): 31%
Effect on STAT3 nuclear translocation ([2]; HeLa cells, pretreatment before oncostatin M (Figure 6, Figure S9)): reduced the STAT3 nuclear translocation in a dose-dependent manner
